Laboratory results published in article PMC6941124 (International Journal of Molecular Sciences, 2019).
Positions count from the first letter of the chain named. Values joined by “and” are separate entries in the source; they are usually repeats but may differ in a detail not shown here. Identical values can stand only once.

Legend:
[1] = target: CK1ε (Homo sapiens, UniProt P49674); experiment: in vitro kinase assay, CK1ε; assay type: biochemical; settings: 10 µM inhibitor, initial screening
[2] = tested on: HeLa CK1δ+/+ cells (HeLa CK1δ−/− stably transfected with CK1δ); experiment: MTT viability assay, HeLa CK1δ+/+ cells; assay type: cell-based; settings: 48 h
Experimental: (§1) Parental HeLa cells, as well as HeLa CSNK1D knock-out cells (CK1δ^−/−) (generated by CRISP/Cas9 technology and provided by EDIGENE, Beijing, China), were cultured in Dulbecco’s Modified Eagle medium (DMEM). HCT-116 and HT-29 colon cancer cells were cultured in McCoy’s 5A medium whereas SW480 and SW620 colon cancer cells were cultured in Leibovitz’s L-15 medium. All media were supplemented with 10% (v/v) fetal bovine serum (FBS), 100 units/mL penicillin, and 100 µg/mL streptomycin. DMEM-based medium for the culture of HeLa CSNK1D knock-out cells was additionally supplemented with 1 μg/mL puromycin. Cell cultures were maintained at 37 °C in a humidified atmosphere containing 5% CO2. Cells were transfected using Effectene transfection reagent (Qiagen, Hilden, Germany) according to the manufacturer’s instructions. For selection of stably transfected clones, transfected cells were grown in selective medium, containing 0.6 mg/mL of G-418 (Calbiochem-Merck Millipore, Darmstadt, Germany).
(§2) For performing MTT viability assays, cells were seeded in a 96-well plate (5 × 10^4 cells/well for HeLa cells (parental, CK1δ^−/−, or CK1δ^−/− cells stably transfected with wild type or mutant CK1δ), HCT-116, and HT-29 cells or 7.5 × 10^4 cell/well for SW480 and SW620 cells). After 24 h, old medium was replaced with fresh medium containing either the small molecule of interest or DMSO as control. After 48 h of treatment, 10 μL MTT (5 mg/mL) was added and incubated at 37 °C for 4 h. The medium was then gently removed and 100 μL of acidic isopropanol was added (90% (v/v) isopropanol, 10% (v/v) 1 N HCl). Cell culture plates were then shaken for 30 min at room temperature. Absorbance was measured at 570 nm with TriStar^2 LB942 Microplate Reader (Berthold Technologies, Bad Wildbad, Germany) and data analysis was performed using GraphPad Prism 6 (GraphPad Software, San Diego, CA, USA).

[3] = target: T1, CK1δ R168H (Homo sapiens, UniProt P48730, R168H); experiment: in vitro kinase assay, CK1δ mutant R168H; assay type: biochemical; settings: 10 µM inhibitor, among 16-19, Figure 5c
T1 sequence (P48730 1-415 R168H): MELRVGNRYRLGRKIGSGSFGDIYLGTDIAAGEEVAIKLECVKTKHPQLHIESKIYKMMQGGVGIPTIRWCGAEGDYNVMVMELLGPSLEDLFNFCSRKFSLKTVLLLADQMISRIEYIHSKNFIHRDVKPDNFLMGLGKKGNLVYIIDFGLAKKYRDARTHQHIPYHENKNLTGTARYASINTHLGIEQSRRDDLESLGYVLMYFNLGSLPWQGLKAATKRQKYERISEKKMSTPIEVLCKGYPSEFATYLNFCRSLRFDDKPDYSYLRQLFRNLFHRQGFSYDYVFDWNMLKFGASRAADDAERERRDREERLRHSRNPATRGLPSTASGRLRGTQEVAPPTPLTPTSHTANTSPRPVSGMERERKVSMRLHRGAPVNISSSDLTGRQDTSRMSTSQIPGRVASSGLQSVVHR
Experimental: (§3) Overexpression and purification of GST-CK1δ fusion proteins, either wild type or mutant, were performed as described previously.
(§4) Each kinase assay reaction was performed in kinase buffer (25 mM Tris-HCl (pH 7.5), 10 μM ATP, 10 mM MgCl2, 100 μM EDTA) in presence of purified GST-CK1δ kinase as source of enzyme (either wild type or mutant), an assay-specific substrate (α-casein, GST-p53^1−64, or GST-β-catenin^1−181), and radiolabeled ATP (2 μCi [γ-^32P]-ATP). For performing Michaelis–Menten analysis increasing substrate concentrations were used (α-casein: 0.39−25 μM; GST-p53^1−64: 0.09−1.87 μM; GST-β-catenin^1−181: 0.07−1.32 μM). For biological evaluation of small molecule inhibitors (SMIs), each inhibitor compound was either tested at 10 μM concentration for initial screening or by using a dilution series (0.005−10 µM) for determination of IC50 values. DMSO was used as control. Reactions were incubated for 30 min at 30 °C and reactions were stopped using 5x SDS-loading buffer (250 mM Tris-HCl [pH 6.8], 25% (v/v) β-mercaptoethanol (MSH), 50% (v/v) glycerol, 10% (w/v) SDS, 0.5% (w/v) bromphenol blue). Subsequently, samples were separated by SDS-PAGE using 12.5% acrylamide gels, stained with Coomassie, and phosphorylated substrates were visualized on X-ray film. Incorporation of radiolabeled phosphate was quantified by scintillation counting of Coomassie-stained substrate bands. Defined dilutions of the reaction master mix were counted as well in order to convert results obtained as counts per minute (CPM) to units of transferred phosphate in pmol/min. Michaelis–Menten analysis was performed using GraphPad Prism 6 (GraphPad Software, San Diego, CA, USA).

[4] = tested on: HeLa CK1δ−/− cells expressing CK1δ R127Q; experiment: MTT viability assay, HeLa CK1δ−/− cells expressing CK1δ R127Q; assay type: cell-based; settings: 48 h
Experimental: as §1, with “For selection of stably transfected clones, transfected cells were grown in selective medium, containing 0.6 mg/mL of G-418 (Calbiochem-Merck Millipore, Darmstadt, Germany).” left out
(§5) For performing MTT viability assays, cells were seeded in a 96-well plate (5 × 10^4 cells/well for HeLa cells (parental, CK1δ^−/−, or CK1δ^−/− cells stably transfected with wild type or mutant CK1δ), HCT-116, and HT-29 cells or 7.5 × 10^4 cell/well for SW480 and SW620 cells). […] Absorbance was measured at 570 nm with TriStar^2 LB942 Microplate Reader (Berthold Technologies, Bad Wildbad, Germany) and data analysis was performed using GraphPad Prism 6 (GraphPad Software, San Diego, CA, USA).

[5] = tested on: HeLa CK1δ−/− cells expressing CK1δ R168H; experiment: MTT viability assay, HeLa CK1δ−/− cells expressing CK1δ R168H; assay type: cell-based; settings: 48 h
Experimental: as §1, with “For selection of stably transfected clones, transfected cells were grown in selective medium, containing 0.6 mg/mL of G-418 (Calbiochem-Merck Millipore, Darmstadt, Germany).” left out
as §5

[6] = target: CK1α (Homo sapiens, UniProt P48729); experiment: in vitro kinase assay, CK1α; assay type: biochemical; settings: 10 µM inhibitor, initial screening
CK1α, sequence (P48729 whole entry): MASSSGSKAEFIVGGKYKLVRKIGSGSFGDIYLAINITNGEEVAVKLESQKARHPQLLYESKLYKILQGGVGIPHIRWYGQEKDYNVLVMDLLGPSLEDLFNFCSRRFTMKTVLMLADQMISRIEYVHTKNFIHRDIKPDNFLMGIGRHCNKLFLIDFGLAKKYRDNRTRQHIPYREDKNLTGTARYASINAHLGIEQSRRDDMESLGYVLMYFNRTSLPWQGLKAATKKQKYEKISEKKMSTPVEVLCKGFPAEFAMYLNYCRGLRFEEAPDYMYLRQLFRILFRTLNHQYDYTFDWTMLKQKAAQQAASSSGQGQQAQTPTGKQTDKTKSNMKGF

[7] = tested on: HeLa CK1δ−/− cells; experiment: MTT viability assay, HeLa CK1δ−/− cells; assay type: cell-based; settings: 48 h
Experimental: as §1, §2

[8] = target: CK1δ wild type (GST-CK1δ) (Homo sapiens, UniProt P48730); experiment: in vitro kinase assay, GST-CK1δ wild type; assay type: biochemical; settings: for Kinase activity of CK1δ in presence of inhibitor: 10 µM inhibitor, initial screening; for IC50: dilution series 0.005−10 µM, mean ± standard error, triplicate
CK1δ wild type (GST-CK1δ), sequence (P48730 whole entry): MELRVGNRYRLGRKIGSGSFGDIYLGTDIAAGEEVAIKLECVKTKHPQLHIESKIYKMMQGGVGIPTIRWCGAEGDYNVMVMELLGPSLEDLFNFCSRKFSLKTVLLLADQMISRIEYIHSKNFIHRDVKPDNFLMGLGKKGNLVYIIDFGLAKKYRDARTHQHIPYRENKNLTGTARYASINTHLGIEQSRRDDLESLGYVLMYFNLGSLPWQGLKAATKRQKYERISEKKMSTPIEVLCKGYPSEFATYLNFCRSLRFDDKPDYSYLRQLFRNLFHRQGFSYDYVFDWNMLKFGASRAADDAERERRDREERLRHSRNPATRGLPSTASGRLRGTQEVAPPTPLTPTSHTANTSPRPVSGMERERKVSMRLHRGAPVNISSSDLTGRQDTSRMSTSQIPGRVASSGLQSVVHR
Experimental: as §3, §4

[9] = tested on: HeLa CK1δ−/− cells expressing CK1δ T67S; experiment: MTT viability assay, HeLa CK1δ−/− cells expressing CK1δ T67S; assay type: cell-based; settings: 48 h
Experimental: as §1, with “For selection of stably transfected clones, transfected cells were grown in selective medium, containing 0.6 mg/mL of G-418 (Calbiochem-Merck Millipore, Darmstadt, Germany).” left out
as §5

[10] = target: T2, CK1δ T67S (Homo sapiens, UniProt P48730, T67S); experiment: in vitro kinase assay, CK1δ mutant T67S; assay type: biochemical; settings: 10 µM inhibitor, Figure 5a
T2 sequence (P48730 1-415 T67S): T1 sequence (P48730 1-415 R168H) with T67S, H168R
Experimental: as §3, §4

[11] = target: CK1γ; experiment: in vitro kinase assay, CK1γ; assay type: biochemical; settings: 10 µM inhibitor, initial screening
[12] = tested on: HT-29 colon cancer cells; experiment: MTT viability assay, HT-29; assay type: cell-based; settings: 10 µM, 48 h, initial screening (Figure 10a)
Experimental: as §1, §2

[13] = tested on: SW620 colon cancer cells; experiment: MTT viability assay, SW620; assay type: cell-based, human; settings: 48 h; for Reduction of cell viability, SW620: 10 µM, initial screening (Figure 10a)
Experimental: as §1, §2

[14] = tested on: SW480 colon cancer cells; experiment: MTT viability assay, SW480; assay type: cell-based, human; settings: 10 µM, 48 h, initial screening (Figure 10a)
Experimental: as §1, §2

[15] = tested on: HCT-116 colon cancer cells; experiment: MTT viability assay, HCT-116; assay type: cell-based; settings: 48 h, dose series (Figure S2)
Experimental: as §1, with “For selection of stably transfected clones, transfected cells were grown in selective medium, containing 0.6 mg/mL of G-418 (Calbiochem-Merck Millipore, Darmstadt, Germany).” left out
as §5

CK1ε, sequence (P49674 whole entry): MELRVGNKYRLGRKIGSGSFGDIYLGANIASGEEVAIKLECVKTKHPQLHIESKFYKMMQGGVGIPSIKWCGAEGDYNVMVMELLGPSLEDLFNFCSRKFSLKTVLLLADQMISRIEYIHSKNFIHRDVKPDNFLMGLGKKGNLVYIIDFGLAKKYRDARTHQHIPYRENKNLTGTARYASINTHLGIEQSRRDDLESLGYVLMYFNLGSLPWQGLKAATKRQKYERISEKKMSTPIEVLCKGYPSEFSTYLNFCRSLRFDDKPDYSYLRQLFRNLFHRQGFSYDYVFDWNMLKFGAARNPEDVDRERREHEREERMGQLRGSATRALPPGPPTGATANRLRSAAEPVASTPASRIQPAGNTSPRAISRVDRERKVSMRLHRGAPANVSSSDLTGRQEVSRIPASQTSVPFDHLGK

| Compound | Kinase activity of CK1ε in presence of inhibitor [1] | Kinase activity of CK1δ in presence of inhibitor [8] | IC50 [8] | Kinase activity of CK1γ in presence of inhibitor [11] | Reduction of cell viability, HT-29 [12] | Reduction of CK1α activity [6] | Reduction of cell viability, SW620 [13] | Reduction of cell viability, SW480 [14] | other results |
| --- | --- | --- | --- | --- | --- | --- | --- | --- | --- |
| COc1ccc(-n2c(SCC(=O)Nc3nc4ccc(C(F)(F)F)cc4s3)nccc2=O)c(OC)c1 [Compound 18, 2-((3-(2,4-Dimethoxyphenyl)-4-oxo-3,4-dihydropyrimidin-2-yl)thio)-N-(6-(trifluoromethyl)benzo[d]thiazol-2-yl)acetamide] | strongly inhibited | strongly inhibited | 1700 nM | not affected |  |  |  |  | Cell viability of CK1δ-expressing cells (HeLa parental or CK1δ+/+) compared to CK1δ-deficient cells (HeLa CK1δ−/−) ([2]; 25 μM): more reduced; EC50 ([2]; CK1, 0.313-70 µM, read-out: EC50 (CK1δ+/+), cell viability): 7400 nM; Effects on CK1δ R168H activity [3]: strongest effects; Effects on cell viability of CK1δ R127Q-expressing HeLa cells vs CK1δ WT-expressing cells ([4]; 10 μM, difference not statistically significant): stronger effects; Effects on cell viability of CK1δ R168H-expressing HeLa cells vs CK1δ WT-expressing cells ([5]; 10 μM): stronger effects; Kinase activity of CK1α in presence of inhibitor [6]: not affected; EC50 ([7]; CK1, 0.313-70 µM, read-out: EC50 (CK1δ−/−), cell viability): 18500 nM; Effects on cell viability of CK1δ T67S-expressing HeLa cells vs CK1δ WT-expressing cells ([9]; 10 μM): stronger effects; Inhibition of CK1δ T67S compared to wild type CK1δ [10]: slightly stronger |
| COc1ccc(Cn2c(SCC(=O)Nc3nc4ccc(C(F)(F)F)cc4s3)nccc2=O)cc1 [Compound 20, 2-((3-(4-Methoxybenzyl)-4-oxo-3,4-dihydropyrimidin-2-yl)thio)-N-(6-(trifluoromethyl)benzo[d]thiazol-2-yl)acetamide] | strongly inhibited | strongly inhibited | 90 nM and 86 nM | not affected | approximately 35% | at least 50% | about 60% | approximately 35% | Cell viability of HeLa CK1δ−/− cells expressing CK1δ R127Q vs CK1δ WT ([4]; 5 μM): no mutant-specific effects; Cell viability of HeLa CK1δ−/− cells expressing CK1δ R168H vs CK1δ WT ([5]; 5 μM): no mutant-specific effects; Cell viability of HeLa CK1δ−/− compared to parental cells or HeLa CK1δ+/+ cells ([7]; 5 μM): significantly less affected; Cell viability of HeLa CK1δ−/− cells expressing CK1δ T67S vs CK1δ WT ([9]; 5 μM): no mutant-specific effects; Dose-dependent effects on SW620 cell viability ([13]; 0.625 to 20 µM, MTT (Figure S2)): clear dose-dependent effects; EC50 ([13]; Homo sapiens, SW-620, 0.625-20 µM, MTT, read-out: EC50 (SW620), cell viability): 3000 nM; Reduction of cell viability, HCT-116 ([15]; 0.625 µM): approximately 30% |
| O=C(CSc1nccc(=O)n1Cc1ccccc1F)Nc1nc2ccc(C(F)(F)F)cc2s1 [Compound 22] | strongly inhibited | strongly inhibited | 240 ± 40 nM | not affected | approximately 35% | at least 50% | 25% | approximately 35% | Reduction of cell viability, HCT-116 ([15]; 1.25 µM): approximately 30% |
